One assay has as its target Ba/F3-EGFR-insSVD cells (Homo sapiens, UniProt P00533, DUP768-770, cells depend on it). Put plainly: Ba/F3 cell survival assay (Cell Titer-Glo), EGFR-insSVD. In kind it is cell-based. Conditions: 48 h, without IL-3, 10 ng/mL EGF; read-out: BA/F3 (insSVD) IC50. As to the method: (§1) 293T cells from ATCC were transfected with pBABEpuro expression constructs for WT EGFR or EGFR-insSVD, or EGFR-insSVD T790M, and pCL-Eco packaging vector using Fugene-6 transfection reagent from Promega. Plates were incubated at 37° C. for 48 h. Retrovirus was harvested by filtering the media supernatant through a 0.45 μm filter.
(§2) Ba/F3 cells purchased from DSMZ were grown in RPMI+10% FBS+10 ng/mL IL-3 and infected with filtered retroviral supernatant at a 1:2 dilution. Polybrene was added to a concentration of 8 μg/mL, plates were spun for 90 min, and incubated for 16 h at 37° C. 2 μg/mL puromycin was added to the infected cells 24 h after infection and cells were continually grown in the presence of puromycin and 10 ng/mL IL-3. Following stably expressing Ba/F3 cell lines were generated: Ba/F3-EGFR-WT, Ba/F3-EGFR-insSVD, Ba/F3-EGFR-insSVD T790M, (Ba/F3—vector-control).
(§3) For cell survival assays, Ba/F3 cells were grown to a density of 1-2 million cells per mL, spun down and resuspended in media without IL-3, and replated at a concentration 200,000-500,000 cells per mL. The cells ectopically expressing WT EGFR, EGFR-insSVD, or EGFR-insSVD T790M were plated with 10 ng/mL Millipore Culture grade EGF. The cells ectopically expressing pBABEpuro empty vector were plated with 10 ng/mL IL-3.
(§4) 2 days later, cells were plated in 50 μL in a 384 well plate at a concentration of 4000 cells per well for cells assayed in the absence of IL-3 and 2000 cells per well for cells assayed in the presence of IL-3. 100 nL of compound was added to each well using a 100 nL pin head, and plates were incubated at 37° C. for 48 h.
(§5) Cell viability was measured by adding 20 μL of Cell Titer-Glo Luminescent Cell Viability Reagent diluted 1:3 in PBS. Plates were sealed with Perkin Elmer Top-Seal, inverted several times to mix, and immediately centrifuged at 1000 rpm for 2 min. Plates were incubated in low light conditions for 8-10 min and luminescence was measured.
(In general: In ATP-based viability assays light output follows the ATP content of the culture.)

The next assay has as its target Ba/F3-EGFR-WT cells (Homo sapiens, UniProt P00533). The assay is described as follows: Ba/F3 cell survival assay (Cell Titer-Glo), WT EGFR. It is filed as cell-based. As to conditions: 48 h, without IL-3, 10 ng/mL EGF; read-out: BA/F3 (wild type) IC50. The protocol:
as §1, §2, §3, §4, §5

Assay [1] addresses T1, mutEGFR (D770_N771insSVD) (Homo sapiens, UniProt P00533, DUP768-770).
T1 construct: GST-EGFR #3 (SVD between D770 and N771); made in house; host or cells: Sf9 insect cells (baculovirus)
Put plainly: Exon20-Mutant-EGFR(D770_N771insSVD) kinase assay (TR-FRET). In kind it is biochemical. Conditions: GST-EGFR ins SVD, 2 mM ATP, 15 min pre-incubation. From the text:
Inhibitory activity of compounds of the present invention against an Epidermal Growth Factor Receptor (EGFR) with an insertion of the amino acids sequence SVD between D770 and N771 was quantified employing the TR-FRET based kinase activity assay as described in the following paragraphs.
A recombinant fusion protein of N-terminal Glutathion-S-Transferase (GST) and a fragment of human EGFR variant (amino acids R669 to A1210 with insertion of the amino acids sequence SVD between D770 and N771 (“EGFR ins SVD”), expressed in Sf9 insect cells and purified via affinity chromatography using Glutathion Sepharose as described above, was used as a kinase. As substrate for the kinase reaction the biotinylated peptide biotin-Ahx-AEEEEYFELVAKKK (SEQ ID NO: 6) (C-terminus in amide form) was used which can be purchased e.g. form the company Biosynthan GmbH (Berlin-Buch, Germany).
For the assay 50 nl of a 100-fold concentrated solution of the test compound in DMSO was pipetted into either a black low volume 384 well microtiter plate or a black 1536 well microtiter plate (both Greiner Bio-One, Frickenhausen, Germany), 2 μl of a solution of EGFR in aqueous assay buffer [50 mM Hepes pH 7.0, 10 mM MgCl2, 1 mM dithiothreitol, 0.5 mM EGTA, 0.3 mM activated sodium ortho-vanadate, 0.005% (w/v) bovine serum albumin, 0.005% (v/v) Tween-20] were added and the mixture was incubated for 15 min at 22° C. to allow pre binding of the test compounds to the enzyme before the start of the kinase reaction. Then the kinase reaction was started by the addition of 3 μL of a solution of adenosine tri phosphate (ATP, 3.33 mM=>final conc. in the 5 μL assay volume is 2 mM) and substrate (1.67 μM=>final conc. in the 5 μL assay volume is 1 μM) in assay buffer and the resulting mixture was incubated for a reaction time of 30 min at 22° C. The concentration of EGFR was adjusted depending of the activity of the enzyme lot and was chosen appropriate to have the assay in the linear range, typical concentration was 15 pg/μl. The reaction was stopped by the addition of 3 μl of a solution of HTRF detection reagents (83.3 nM streptavidine-XL665 [Cisbio Bioassays, Codolet, France] and 1.67 nM PT66-Tb-Cryptate, a terbium-cryptate labelled anti-phospho-tyrosine antibody from Cisbio Bioassays [instead of the PT66 Tb cryptate PT66 Eu Chelate from Perkin Elmer can also be used]) in an aqueous EDTA-solution (133.3 mM EDTA, 0.2% (w/v) bovine serum albumin in 50 mM HEPES pH 7.5).
The resulting mixture was incubated 1 h at 22° C. to allow the binding of the biotinylated phosphorylated peptide to the streptavidine-XL665 and the PT66-Tb-Cryptate. Subsequently the amount of phosphorylated substrate was evaluated by measurement of the resonance energy transfer from the PT66-Tb-Cryptate to the streptavidine-XL665. Therefore, the fluorescence emissions at 620 nm and 665 nm after excitation at 337 nm were measured in a HTRF reader, e.g. a Pherastar (BMG Labtechnologies, Offenburg, Germany) or a Viewlux (Perkin-Elmer). The ratio of the emissions at 665 nm and at […] was taken as the measure for the amount of phosphorylated substrate. The data were normalised (enzyme reaction without inhibitor=0% inhibition, all other assay components but no enzyme=100% inhibition).
A general note: TR-FRET usually uses a lanthanide donor and a delayed reading to cut background.

The target of assay [2] is Ba/F3-EGFR-E746_A750del T790M cells (Homo sapiens, UniProt P00533, DEL746-750/T790M, cells depend on it). Put plainly: Ba/F3 cell survival assay (Cell Titer-Glo), EGFR-E746_A750del T790M. It is filed as cell-based. As to conditions: 48 h, without IL-3, 10 ng/mL EGF; read-out: BA/F3 (E746_A750del T790M) IC50. As to the method: (§6) 293T cells from ATCC were transfected with pBABEpuro expression constructs for EGFR-L858R, EGFR-E746_A750del, EGFR-L858R T790M, or EGFR-E746_A750del T790M, and pCL-Eco packaging vector using Fugene-6 transfection reagent from Promega. Plates were incubated at 37° C. for 48 h. Retrovirus was harvested by filtering the media supernatant through a 0.45 μm filter.
Sequence of Ba/F3-EGFR-E746_A750del T790M cells (P00533 with tags, fused parts or gaps DEL746-750/T790M): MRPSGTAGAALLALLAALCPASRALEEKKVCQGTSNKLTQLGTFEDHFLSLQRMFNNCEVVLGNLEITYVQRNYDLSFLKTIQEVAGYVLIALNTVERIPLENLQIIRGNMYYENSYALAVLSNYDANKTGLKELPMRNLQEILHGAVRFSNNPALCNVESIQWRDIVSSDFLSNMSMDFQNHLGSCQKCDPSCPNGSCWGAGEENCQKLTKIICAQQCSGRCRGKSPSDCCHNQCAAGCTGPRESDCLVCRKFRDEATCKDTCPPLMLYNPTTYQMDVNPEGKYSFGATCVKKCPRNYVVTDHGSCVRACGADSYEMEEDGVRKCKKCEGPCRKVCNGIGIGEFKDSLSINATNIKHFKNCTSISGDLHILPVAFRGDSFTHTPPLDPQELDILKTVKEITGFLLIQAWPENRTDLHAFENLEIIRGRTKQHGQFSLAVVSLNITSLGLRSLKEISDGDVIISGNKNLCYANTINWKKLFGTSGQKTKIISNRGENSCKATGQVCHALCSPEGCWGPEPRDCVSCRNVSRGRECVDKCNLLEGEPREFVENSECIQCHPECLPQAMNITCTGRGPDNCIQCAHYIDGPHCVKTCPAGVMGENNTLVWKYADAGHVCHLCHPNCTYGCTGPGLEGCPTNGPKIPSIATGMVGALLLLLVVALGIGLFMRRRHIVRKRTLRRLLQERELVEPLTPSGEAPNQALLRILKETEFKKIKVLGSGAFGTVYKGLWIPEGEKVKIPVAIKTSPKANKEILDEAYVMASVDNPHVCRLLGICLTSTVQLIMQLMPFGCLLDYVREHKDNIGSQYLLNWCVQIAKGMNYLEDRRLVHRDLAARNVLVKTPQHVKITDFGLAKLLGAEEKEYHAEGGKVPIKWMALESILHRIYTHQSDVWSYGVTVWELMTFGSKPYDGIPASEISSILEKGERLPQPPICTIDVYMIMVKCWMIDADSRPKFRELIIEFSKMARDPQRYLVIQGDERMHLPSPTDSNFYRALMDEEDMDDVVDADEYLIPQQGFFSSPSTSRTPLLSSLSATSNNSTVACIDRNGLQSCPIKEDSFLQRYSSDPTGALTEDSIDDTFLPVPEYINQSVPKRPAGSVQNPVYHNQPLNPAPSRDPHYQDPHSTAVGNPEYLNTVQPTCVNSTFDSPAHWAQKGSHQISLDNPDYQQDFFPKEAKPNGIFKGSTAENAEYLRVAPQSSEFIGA
(§7) Ba/F3 cells purchased from DSMZ were grown in RPMI+10% FBS+10 ng/mL IL-3 and infected with filtered retroviral supernatant at a 1:2 dilution. Polybrene was added to a concentration of 8 μg/mL, plates were spun for 90 min, and incubated for 16 h at 37° C. 2 μg/mL puromycin was added to the infected cells 24 h after infection and cells were continually grown in the presence of puromycin and 10 ng/mL IL-3. Following stably expressing Ba/F3 cell lines were generated: Ba/F3-EGFR-L858R, Ba/F3-EGFR-E746_A750del, Ba/F3-EGFR-L858R T790M, or Ba/F3-EGFR-E746_A750del T790M.
(§8) For cell survival assays, Ba/F3 cells were grown to a density of 1-2 million cells per mL, spun down and resuspended in media without IL-3, and replated at a concentration 200,000-500,000 cells per mL. The cells ectopically expressing EGFR-L858R, EGFR-E746_A750del, EGFR-L858R T790M, or EGFR-E746_A750del T790M were plated with 10 ng/mL Millipore Culture grade EGF. The cells ectopically expressing pBABEpuro empty vector were plated with 10 ng/mL IL-3.
as §4, §5

Assay [3] has as its target Ba/F3-EGFR-L858R T790M cells (Homo sapiens, UniProt P00533, T790M/L858R, cells depend on it). Put plainly: Ba/F3 cell survival assay (Cell Titer-Glo), EGFR-L858R T790M. It is filed as cell-based. As to conditions: 48 h, without IL-3, 10 ng/mL EGF; read-out: BA/F3 (L858R T790M) IC50. As to the method:
as §6, §7, §8, §4, §5

pIC50: −log10 of the molar value.

As usually defined, the pIC50 is the IC50 on a negative log10 scale, so that one unit is a factor of ten. A higher pIC50 goes with a low IC50.

Sequence of Ba/F3-EGFR-insSVD cells (P00533 with tags, fused parts or gaps DUP768-770): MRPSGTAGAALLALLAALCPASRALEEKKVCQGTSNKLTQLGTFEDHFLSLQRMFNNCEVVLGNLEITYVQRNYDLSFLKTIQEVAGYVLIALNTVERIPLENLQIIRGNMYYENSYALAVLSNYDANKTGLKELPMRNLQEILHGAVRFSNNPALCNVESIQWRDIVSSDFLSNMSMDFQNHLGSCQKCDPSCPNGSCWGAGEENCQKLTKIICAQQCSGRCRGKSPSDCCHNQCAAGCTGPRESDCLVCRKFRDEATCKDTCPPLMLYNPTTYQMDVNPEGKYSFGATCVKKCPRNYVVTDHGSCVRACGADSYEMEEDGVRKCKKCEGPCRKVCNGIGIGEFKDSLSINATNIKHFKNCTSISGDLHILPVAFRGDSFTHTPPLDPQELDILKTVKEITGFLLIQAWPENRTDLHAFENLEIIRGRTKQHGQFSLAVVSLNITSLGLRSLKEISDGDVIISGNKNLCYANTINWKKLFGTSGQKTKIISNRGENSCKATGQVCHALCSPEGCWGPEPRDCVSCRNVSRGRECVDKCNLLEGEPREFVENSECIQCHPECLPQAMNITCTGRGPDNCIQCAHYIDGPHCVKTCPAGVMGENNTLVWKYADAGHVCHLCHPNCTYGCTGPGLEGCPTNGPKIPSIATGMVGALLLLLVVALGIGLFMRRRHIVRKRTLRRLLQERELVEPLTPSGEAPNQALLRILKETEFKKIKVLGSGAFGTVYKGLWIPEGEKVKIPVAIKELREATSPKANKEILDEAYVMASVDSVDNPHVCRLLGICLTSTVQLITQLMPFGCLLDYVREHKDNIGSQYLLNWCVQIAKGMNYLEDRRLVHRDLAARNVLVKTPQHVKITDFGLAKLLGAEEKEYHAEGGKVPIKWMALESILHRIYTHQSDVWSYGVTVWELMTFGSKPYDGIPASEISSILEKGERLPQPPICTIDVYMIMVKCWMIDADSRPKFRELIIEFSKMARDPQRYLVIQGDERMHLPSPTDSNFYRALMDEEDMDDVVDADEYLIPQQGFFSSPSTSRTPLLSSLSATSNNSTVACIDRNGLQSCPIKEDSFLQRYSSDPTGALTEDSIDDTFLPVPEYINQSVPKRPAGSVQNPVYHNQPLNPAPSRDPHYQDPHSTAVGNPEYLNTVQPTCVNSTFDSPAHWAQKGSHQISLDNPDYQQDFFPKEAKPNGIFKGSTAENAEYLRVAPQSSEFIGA
Sequence of Ba/F3-EGFR-L858R T790M cells (P00533 whole entry T790M/L858R): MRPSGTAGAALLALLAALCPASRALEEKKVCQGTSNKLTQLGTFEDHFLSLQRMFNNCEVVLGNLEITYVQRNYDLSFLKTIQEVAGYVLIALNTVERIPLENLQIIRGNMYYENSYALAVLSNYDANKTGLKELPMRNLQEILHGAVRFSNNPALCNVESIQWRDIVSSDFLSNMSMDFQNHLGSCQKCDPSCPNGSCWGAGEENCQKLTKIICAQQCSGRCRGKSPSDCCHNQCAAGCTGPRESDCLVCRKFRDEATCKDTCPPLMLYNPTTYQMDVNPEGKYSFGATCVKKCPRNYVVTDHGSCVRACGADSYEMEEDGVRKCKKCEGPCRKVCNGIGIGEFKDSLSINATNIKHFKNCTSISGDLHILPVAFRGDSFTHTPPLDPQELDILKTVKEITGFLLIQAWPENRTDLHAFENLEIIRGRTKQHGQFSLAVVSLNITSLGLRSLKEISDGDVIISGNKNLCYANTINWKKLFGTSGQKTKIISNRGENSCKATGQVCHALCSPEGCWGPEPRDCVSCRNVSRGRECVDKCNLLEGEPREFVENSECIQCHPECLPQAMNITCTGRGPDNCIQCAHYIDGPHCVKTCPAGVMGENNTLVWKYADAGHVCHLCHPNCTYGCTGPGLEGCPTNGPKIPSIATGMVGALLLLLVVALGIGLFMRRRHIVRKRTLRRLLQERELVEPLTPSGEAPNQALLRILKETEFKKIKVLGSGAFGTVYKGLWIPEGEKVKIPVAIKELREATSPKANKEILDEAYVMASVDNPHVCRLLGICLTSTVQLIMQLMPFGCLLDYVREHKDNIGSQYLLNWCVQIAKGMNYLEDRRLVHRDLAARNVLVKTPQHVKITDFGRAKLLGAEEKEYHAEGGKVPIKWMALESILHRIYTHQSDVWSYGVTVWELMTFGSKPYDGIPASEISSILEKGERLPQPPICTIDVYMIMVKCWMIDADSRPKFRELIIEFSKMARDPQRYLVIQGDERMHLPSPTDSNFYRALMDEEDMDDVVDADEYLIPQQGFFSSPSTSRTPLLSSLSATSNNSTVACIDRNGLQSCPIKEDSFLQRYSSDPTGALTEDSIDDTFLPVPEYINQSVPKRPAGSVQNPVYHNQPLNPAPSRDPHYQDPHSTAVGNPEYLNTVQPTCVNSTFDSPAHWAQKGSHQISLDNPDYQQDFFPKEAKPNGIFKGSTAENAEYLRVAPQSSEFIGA
Sequence of Ba/F3-EGFR-WT cells (P00533 whole entry, change not shown): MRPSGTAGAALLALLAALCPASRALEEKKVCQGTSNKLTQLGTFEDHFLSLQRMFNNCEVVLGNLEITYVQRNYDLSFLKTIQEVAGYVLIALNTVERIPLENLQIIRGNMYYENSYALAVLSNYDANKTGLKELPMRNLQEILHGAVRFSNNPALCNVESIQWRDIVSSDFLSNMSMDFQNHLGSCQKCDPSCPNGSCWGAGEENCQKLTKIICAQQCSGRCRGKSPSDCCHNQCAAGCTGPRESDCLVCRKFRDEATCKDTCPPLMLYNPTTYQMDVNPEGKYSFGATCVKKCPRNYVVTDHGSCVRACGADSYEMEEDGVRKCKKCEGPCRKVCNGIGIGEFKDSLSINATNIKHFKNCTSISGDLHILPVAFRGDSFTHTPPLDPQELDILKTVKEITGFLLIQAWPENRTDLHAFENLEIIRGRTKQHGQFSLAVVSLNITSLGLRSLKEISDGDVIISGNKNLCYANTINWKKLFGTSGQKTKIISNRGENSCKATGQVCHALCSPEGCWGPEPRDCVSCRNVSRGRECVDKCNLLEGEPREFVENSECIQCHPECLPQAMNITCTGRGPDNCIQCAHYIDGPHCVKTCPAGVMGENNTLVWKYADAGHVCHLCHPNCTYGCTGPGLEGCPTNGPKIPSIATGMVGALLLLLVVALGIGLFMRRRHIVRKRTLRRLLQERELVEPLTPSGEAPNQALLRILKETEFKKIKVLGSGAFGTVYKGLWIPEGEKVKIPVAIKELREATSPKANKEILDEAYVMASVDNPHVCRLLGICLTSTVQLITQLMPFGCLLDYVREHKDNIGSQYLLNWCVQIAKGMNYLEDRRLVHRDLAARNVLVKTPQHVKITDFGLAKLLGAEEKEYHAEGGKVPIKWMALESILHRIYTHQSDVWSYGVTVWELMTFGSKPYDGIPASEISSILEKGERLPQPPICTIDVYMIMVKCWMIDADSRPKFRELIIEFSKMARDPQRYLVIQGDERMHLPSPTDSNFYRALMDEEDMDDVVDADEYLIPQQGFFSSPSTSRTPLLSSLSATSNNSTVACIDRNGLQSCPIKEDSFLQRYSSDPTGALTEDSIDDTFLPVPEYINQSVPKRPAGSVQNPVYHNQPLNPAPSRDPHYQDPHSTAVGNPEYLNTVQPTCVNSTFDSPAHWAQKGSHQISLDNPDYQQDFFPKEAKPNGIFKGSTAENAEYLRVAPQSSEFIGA

For `C=CC(=O)N(C)CCOc1cnccc1-c1[nH]c2c(c1Nc1ccccc1OC(F)F)C(=O)NCC2` [Example 14, N-(2-{[4-(3-{[2-(difluoromethoxy)phenyl]amino}-4-oxo-4,5,6,7-tetrahydro-1H-pyrrolo[3,2-c]pyridin-2-yl)pyridin-3-yl]oxy}ethyl)-N-methylprop-2-enamide], the GI50 was determined as 35.4 nM at Ba/F3-EGFR-insSVD cells, 652 nM on Ba/F3-EGFR-WT cells, 29.1 nM in assay [2] and 397 nM in assay [3]. Also, in assay [1], the negative logarithm of the IC50 (pIC50) was 9.24.
On the same counts, the results for `C=CC(=O)N(C)CCOc1cnccc1-c1[nH]c2c(c1Nc1cccc(Cl)c1OC)C(=O)NCC2` [Example 5, N-[2-({4-[3-(3-chloro-2-methoxyanilino)-4-oxo-4,5,6,7-tetrahydro-1H-pyrrolo[3,2-c]pyridin-2-yl]pyridin-3-yl}oxy)ethyl]-N-methylprop-2-enamide] are 5.77 nM, 68 nM, 3.39 nM, 12.9 nM and 9.64.
On the same counts, the results for `COc1c(Cl)cccc1Nc1c(-c2ccncc2OCCN(C)C(=O)/C=C/CN(C)C)[nH]c2c1C(=O)NC1(CCC1)C2` [Example 10, (2E)-N-[2-({4-[3′-(3-chloro-2-methoxyanilino)-4′-oxo-1′,4′,5′,7′-tetrahydrospiro[cyclobutane-1,6′-pyrrolo[3,2-c]pyridin]-2′-yl]pyridin-3-yl}oxy)ethyl]-4-(dimethylamino)-N-methylbut-2-enamide] are 205 nM, 1660 nM, 651 nM, above 1000 nM and 8.45.
For `C=CC(=O)N(C)CCOc1cnccc1-c1[nH]c2c(c1Nc1cccc(Cl)c1OC)C(=O)NC1(CCC1)C2` [Example 11, N-[2-({4-[3′-(3-chloro-2-methoxyanilino)-4′-oxo-1′,4′,5′,7′-tetrahydrospiro[cyclobutane-1,6′-pyrrolo[3,2-c]pyridin]-2′-yl]pyridin-3-yl}oxy)ethyl]-N-methylprop-2-enamide], in that order: 12.2 nM, 309 nM, 25.8 nM, 198 nM and 9.33.
As for `COc1c(F)cccc1Nc1c(-c2ccncc2OCCN(C)C(=O)/C=C/CN(C)C)[nH]c2c1C(=O)NCC2` [Example 8, (2E)-4-(dimethylamino)-N-[2-({4-[3-(3-fluoro-2-methoxyanilino)-4-oxo-4,5,6,7-tetrahydro-1H-pyrrolo[3,2-c]pyridin-2-yl]pyridin-3-yl}oxy)ethyl]-N-methylbut-2-enamide], the GI50 on Ba/F3-EGFR-insSVD cells was 240 nM; at Ba/F3-EGFR-WT cells, 4700 nM; in assay [2] it was 370 nM; in assay [3], above 1000 nM. In addition, the negative-log IC50 (pIC50) in assay [1] was 9.26.
For `C=CC(=O)N(C)CCOc1cnccc1-c1[nH]c2c(c1Nc1cccc(Cl)c1OC)C(=O)NC(C)(C)C2` [Example 12, N-[2-({4-[3-(3-chloro-2-methoxyanilino)-6,6-dimethyl-4-oxo-4,5,6,7-tetrahydro-1H-pyrrolo[3,2-c]pyridin-2-yl]pyridin-3-yl}oxy)ethyl]-N-methylprop-2-enamide], in that order: 17.7 nM, 330 nM, 47.4 nM, 276 nM and 9.23.

Values taken from patent US20230416249A1, “N-[2-({4-[3-(ANILINO)-4-OXO-4,5,6,7-TETRAHYDRO-1H-PYRROLO[3,2-C]PYRIDIN-2-YL]PYRIDIN-3-YL)OXY)ETHYL]PROP-2-ENAMIDE DERIVATIVES AND SIMILAR COMPOUNDS AS EGFR INHIBITORS FOR THE TREATMENT OF CANCER” (Bayer Aktiengesellschaft, priority 2020, published 2023).
